Experimental data from patent US9849130B2 (KamTek, Inc., priority 2014, dated 2017).
≈ marks a conversion by molar mass, not a printed value. Where “and” joins values, the source holds several entries; their conditions need not be identical. Equal entries are not always repeated. Entries after “also recorded” stand apart in the source; their conditions may differ. Where two headings read alike, the source gives them in different places.

Key:
CD strains = assay: In vitro activity of CFM + additional antimicrobial agent against CD (MIC alone/combination, FIC, ΣFIC); format: cell-based, Clostridium difficile
Escherichia coli strains = assay: MIC by microdilution in Mueller-Hinton broth against Escherichia coli strains; format: cell-based; conditions: for MIC: Escherichia coli, Mueller-Hinton broth, read-out: MIC
C. difficile = assay: Minimum bactericidal concentration (MBC) against C. difficile; format: cell-based, Clostridium difficile; conditions: for MBC: Clostridioides difficile
[1] = tested on: Staphylococcus aureus strains; assay: MIC by microdilution in Mueller-Hinton broth against Staphylococcus aureus strains; format: cell-based; conditions: Staphylococcus aureus
Enterococcus faecalis = assay: MIC by microdilution in Mueller-Hinton broth against Enterococcus faecalis strains; format: cell-based; conditions: Enterococcus faecalis
[2] = tested on: Lachnospiraceae and related bacterial strains; assay: MIC against Lachnospiraceae and related bacterial strains; format: cell-based, Lachnospiraceae spp.
Bifidobacterium strains = assay: MIC by microdilution in BHI broth against Bifidobacterium strains; format: cell-based, Bifidobacterium spp.; conditions: BHI broth, read-out: MIC
C. perfringens MH310 = assay: microbe, parasite or virus in culture; format: cell-based; conditions: Clostridium perfringens, MH310, C. perfringens MH310
[3] = tested on: Clostridium difficile (CD) strains; assay: microbe, parasite or virus in culture; format: cell-based
[4] = Test 17, CD strain BAA1805 (BI/NAP1/027), CFM + MET
[5] = Test 18, CD strain NR32888, CFM + VAN
[6] = Test 19, CD strain NR32888, CFM + MET
[7] = Test 20, CD strain NR32888, CFM + VAN
[8] = Test 21, CD strain NR32888, CFM + MET

## CC(C)N=c1cc2n(-c3ccc(Cl)cc3)c3ccccc3nc-2cc1Nc1ccc(Cl)cc1 [CFM, 3-(p-chloroanilino)-10-(p-chlorophenyl)-2,10-dihydro-2-iso-propyliminophenazine]
CD strains; Test 16, CD strain BAA1805 (BI/NAP1/027), CFM + VAN
  MIC combination: 0.062 µg/mL
CD strains; Test 16, CD strain BAA1805 (BI/NAP1/027), sum for combination CFM + VAN
  ΣFIC: 0.5
CD strains; [4]
  FIC: 0.031
  MIC combination: 0.0078 µg/mL
CD strains; Test 17, CD strain BAA1805 (BI/NAP1/027), sum for combination CFM + MET
  ΣFIC: 0.156
CD strains; [5]
  FIC: 0.5
  MIC combination: 0.125 µg/mL
CD strains; Test 18, CD strain NR32888, sum for combination CFM + VAN
  ΣFIC: 1
CD strains; [6]
  FIC: 0.062
  MIC combination: 0.015 µg/mL
CD strains; Test 19, CD strain NR32888, sum for combination CFM + MET
  ΣFIC: 0.125
CD strains; [7]
  FIC: 0.25
  MIC combination: 0.062 µg/mL
CD strains; Test 20, CD strain NR32888, sum for combination CFM + VAN
  ΣFIC: 0.75
CD strains; [8]
  FIC: 0.031
  MIC combination: 0.0078 µg/mL
CD strains; Test 21, CD strain NR32888, sum for combination CFM + MET
  ΣFIC: 0.28
Escherichia coli strains
  activity against E. coli (in words): relatively inactive; also recorded: not active
Escherichia coli strains; Escherichia coli strain NR 6
  MIC: > 32 µg/mL
Escherichia coli strains; Escherichia coli strain NR 8
  MIC: > 32 µg/mL
Escherichia coli strains; Escherichia coli strain NR 96
  MIC: > 32 µg/mL
Escherichia coli strains; Escherichia coli strain NR 104
  MIC: > 32 µg/mL
Escherichia coli strains; Escherichia coli strain NR 17626
  MIC: > 32 µg/mL
Escherichia coli strains; Escherichia coli strain NR 17627
  MIC: > 32 µg/mL
Escherichia coli strains; Escherichia coli strain NR 17633
  MIC: > 32 µg/mL
Escherichia coli strains; Escherichia coli strain NR 17647
  MIC: > 32 µg/mL
Escherichia coli strains; Escherichia coli strain NR 17650
  MIC: > 32 µg/mL
Escherichia coli strains; Escherichia coli strain NR 17661
  MIC: > 32 µg/mL
C. difficile
  MBC/MIC: 2 and 1
  MBC/MIC ratio range: 1-2
C. difficile; CD isolate BAA1805 (hyper-virulent strain BI/NAP1/027)
  MBC/MIC: 1
C. difficile; BAA1805
  MBC: 0.125 µg/mL (≈ 0.264 µM)
C. difficile; CD isolate NR13430, read-out: MBC
  MBC: 0.25 µg/mL (≈ 0.528 µM)
C. difficile; CD isolate NR13432, read-out: MBC
  MBC: 0.25 µg/mL (≈ 0.528 µM)
C. difficile; CD isolate NR13437, read-out: MBC
  MBC: 0.25 µg/mL (≈ 0.528 µM)
C. difficile; CD isolate NR32882, read-out: MBC
  MBC: 0.5 µg/mL (≈ 1.06 µM)
C. difficile; CD isolate NR32883, read-out: MBC
  MBC: 0.5 µg/mL (≈ 1.06 µM)
C. difficile; CD isolate NR332884, read-out: MBC
  MBC: 0.25 µg/mL (≈ 0.528 µM)
C. difficile; CD isolate VPI10463, read-out: MBC
  MBC: 0.25 µg/mL (≈ 0.528 µM)
[1]; Staphylococcus aureus strain NR 10129, read-out: MIC
  MIC: 16 µg/mL (≈ 33.8 µM)
[1]; Staphylococcus aureus strain NR 10186, read-out: MIC
  MIC: 2 µg/mL (≈ 4.22 µM)
[1]; Staphylococcus aureus strain NR 10187, read-out: MIC
  MIC: > 32 µg/mL
[1]; Staphylococcus aureus strain NR 10188, read-out: MIC
  MIC: 8 µg/mL (≈ 16.9 µM)
[1]; Staphylococcus aureus strain NR 10189, read-out: MIC
  MIC: 8 µg/mL (≈ 16.9 µM)
[1]; Staphylococcus aureus strain NR 10191, read-out: MIC
  MIC: 4 µg/mL (≈ 8.45 µM)
[1]; Staphylococcus aureus strain NR 10192, read-out: MIC
  MIC: 8 µg/mL (≈ 16.9 µM)
[1]; Staphylococcus aureus strain NR 10193, read-out: MIC
  MIC: 4 µg/mL (≈ 8.45 µM)
[1]; Staphylococcus aureus strain NR 10194, read-out: MIC
  MIC: 4 µg/mL (≈ 8.45 µM)
[1]; Staphylococcus aureus strain NR 10198, read-out: MIC
  MIC: 16 µg/mL (≈ 33.8 µM)
Enterococcus faecalis; E. faecalis NR 31884, read-out: MIC
  MIC: 32 µg/mL (≈ 67.6 µM)
Enterococcus faecalis; E. faecalis NR 31885, read-out: MIC
  MIC: 32 µg/mL (≈ 67.6 µM)
Enterococcus faecalis; E. faecalis NR 31886, read-out: MIC
  MIC: 32 µg/mL (≈ 67.6 µM)
Enterococcus faecalis; E. faecalis NR 31887, read-out: MIC
  MIC: 16 µg/mL (≈ 33.8 µM)
Enterococcus faecalis; E. faecalis NR 31888, read-out: MIC
  MIC: 32 µg/mL (≈ 67.6 µM)
[2]
  MIC: 0.125 µg/mL (≈ 0.264 µM)
[2]; Clostridiales bacterium, Clostridiales bacterium HM-84, broth microdilution, brucella broth, read-out: MIC
  MIC: ≤ 0.031 µg/mL
[2]; Clostridiales bacterium, Clostridiales bacterium HM-182, broth microdilution, brucella broth, read-out: MIC
  MIC: 0.25 µg/mL (≈ 0.528 µM)
[2]; Eubacterium sp. HM-178, broth microdilution, brucella broth
  MIC: 0.125 µg/mL (≈ 0.264 µM)
[2]; Lachnospiraceae sp. HM-7, broth microdilution, brucella broth, read-out: MIC
  MIC: ≤ 0.031 µg/mL
[2]; Lachnospiraceae sp. HM-150, broth microdilution, brucella broth, read-out: MIC
  MIC: 0.25 µg/mL (≈ 0.528 µM)
[2]; Lachnospiraceae sp. HM-153, broth microdilution, brucella broth
  MIC: 0.125 µg/mL (≈ 0.264 µM)
[2]; Lachnospiraceae sp. HM-154, broth microdilution, brucella broth, read-out: MIC
  MIC: 0.5 µg/mL (≈ 1.06 µM)
[2]; Lachnospiraceae sp. HM-161, broth microdilution, brucella broth, read-out: MIC
  MIC: 0.25 µg/mL (≈ 0.528 µM)
[2]; Lachnospiraceae sp. HM-480, broth microdilution, brucella broth, read-out: MIC
  MIC: 0.062 µg/mL (≈ 0.131 µM)
[2]; Lachnospiraceae sp. HM-558, broth microdilution, brucella broth, read-out: MIC
  MIC: 0.062 µg/mL (≈ 0.131 µM)
[2]; Lachnospiraceae sp. HM-768, broth microdilution, brucella broth, read-out: MIC
  MIC: ≤ 0.031 µg/mL
[2]; Lachnospiraceae sp. HM-868, broth microdilution, brucella broth, read-out: MIC
  MIC: 2 µg/mL (≈ 4.22 µM)
[2]; Peptostreptococcaceae sp. HM-766, broth microdilution, brucella broth, read-out: MIC
  MIC: 1 µg/mL (≈ 2.11 µM)
[2]; most of the members of this family
  susceptibility of Lachnospiraceae and related organisms (in words): susceptible
Bifidobacterium strains; Bifidobacterium adolescentis HM-633
  MIC: 1 µg/mL (≈ 2.11 µM)
Bifidobacterium strains; Bifidobacterium breve HM-411
  MIC: 2 µg/mL (≈ 4.22 µM)
Bifidobacterium strains; Bifidobacterium breve HM-412
  MIC: 2 µg/mL (≈ 4.22 µM)
Bifidobacterium strains; Bifidobacterium breve HM-856
  MIC: 4 µg/mL (≈ 8.45 µM)
Bifidobacterium strains; Bifidobacterium breve HM-1120
  MIC: > 32 µg/mL
Bifidobacterium strains; Bifidobacterium longum HM-845
  MIC: 1 µg/mL (≈ 2.11 µM)
Bifidobacterium strains; Bifidobacterium longum HM-846
  MIC: 2 µg/mL (≈ 4.22 µM)
Bifidobacterium strains; Bifidobacterium longum HM-847
  MIC: 1 µg/mL (≈ 2.11 µM)
Bifidobacterium strains; Bifidobacterium, Bifidobacterium sp. HM-30
  MIC: 0.5 µg/mL (≈ 1.06 µM)
Bifidobacterium strains; Bifidobacterium, Bifidobacterium sp. HM-868
  MIC: 2 µg/mL (≈ 4.22 µM)
C. difficile VPI10463; Clostridioides difficile, VPI10463
  MIC: 0.125 µg/mL (≈ 0.264 µM)
C. difficile VPI10463; Clostridioides difficile, VPI10463, Expt. 1, fecal extract (human feces 20% w/v in BHI), C. difficile VPI10463
  MIC: 0.5 µg/mL (≈ 1.06 µM)
C. difficile VPI10463; Clostridioides difficile, VPI10463, Expt. 2, −fecal extract, C. difficile VPI10463
  MIC: 0.062 µg/mL (≈ 0.131 µM)
C. difficile VPI10463; Expt. 2, +fecal extract (human feces 20% w/v in BHI), C. difficile VPI10463
  MIC: 0.125 µg/mL (≈ 0.264 µM)
C. perfringens MH310; BB
  MIC: 0.5 µg/mL (≈ 1.06 µM)
C. perfringens MH310; BHI
  MIC: 1 µg/mL (≈ 2.11 µM)
[3]; Clostridioides difficile
  MIC50: 0.062 µg/mL (≈ 0.131 µM)
  MIC90: 0.25 µg/mL (≈ 0.528 µM)
[3]; Clostridioides difficile, BAA1805, CD isolate BAA1805 (hyper-virulent strain BI/NAP1/027), Table 6
  MIC: 0.125 µg/mL (≈ 0.264 µM)
[3]; Clostridioides difficile, BAA1805, CD strain BAA1805 (hyper-virulent strain BI/NAP1/027), BB
  MIC: 0.125 µg/mL (≈ 0.264 µM)
[3]; Clostridioides difficile, BAA1805, CD strain BAA1805 (hyper-virulent strain BI/NAP1/027), BHI
  MIC: 0.125 µg/mL (≈ 0.264 µM)
[3]; n = 37
  MIC50: 0.062 µg/mL (≈ 0.131 µM)
  MIC90: 0.25 µg/mL (≈ 0.528 µM)
  MIC Range: ≦0.031-0.25 μg/ml
